Measured values taken from PubChem BioAssay (NCI).
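Values below derive from 48-hour exposures of cells grown in 96-well plates, with endpoints linearly interpolated between the two concentrations bracketing the appropriate inhibition level. Definition used: TGI = concentration required for complete inhibition of growth.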

Tests used:
Experiment in all cases: growth of human tumour cells (NCI), 48 h
CAKI-1 renal = test system: CAKI-1 renal
U251 CNS = test system: U251 CNS
RPMI-8226 leukemia = test system: RPMI-8226 leukemia
HOP-18 NSCLC = test system: HOP-18 NSCLC
SNB-19 CNS = test system: SNB-19 CNS
DMS 273 small cell lung = test system: DMS 273 small cell lung
OVCAR-3 ovarian = test system: OVCAR-3 ovarian
DMS 114 small cell lung = test system: DMS 114 small cell lung
SK-MEL-28 melanoma = test system: SK-MEL-28 melanoma
HT29 colon = test system: HT29 colon
A549 NSCLC = test system: A549 NSCLC
CCRF-CEM leukemia = test system: CCRF-CEM leukemia
SF-268 CNS = test system: SF-268 CNS
NCI-H23 lung = test system: NCI-H23 lung
SF-295 CNS = test system: SF-295 CNS
NCI-H522 lung = test system: NCI-H522 lung
LOX IMVI melanoma = test system: LOX IMVI melanoma
KM20L2 colon = test system: KM20L2 colon
TK-10 renal = test system: TK-10 renal
RXF 393 renal = test system: RXF 393 renal
MOLT-4 leukemia = test system: MOLT-4 leukemia
M19-MEL melanoma = test system: M19-MEL melanoma
OVCAR-4 ovarian = test system: OVCAR-4 ovarian
786-0 renal = test system: 786-0 renal
SNB-75 CNS = test system: SNB-75 CNS
SN12C renal = test system: SN12C renal
EKVX NSCLC = test system: EKVX NSCLC
RXF-631 renal = test system: RXF-631 renal
MALME-3M melanoma = test system: MALME-3M melanoma
SF-539 CNS = test system: SF-539 CNS
HCC-2998 colon = test system: HCC-2998 colon
HL-60(TB) leukemia = test system: HL-60(TB) leukemia
HCT-15 colon = test system: HCT-15 colon
SW-620 colon = test system: SW-620 colon
NCI-H460 lung = test system: NCI-H460 lung
ACHN renal = test system: ACHN renal
M14 melanoma = test system: M14 melanoma
UO-31 renal = test system: UO-31 renal
UACC-62 melanoma = test system: UACC-62 melanoma
HOP-62 NSCLC = test system: HOP-62 NSCLC
K-562 leukemia = test system: K-562 leukemia
HOP-92 NSCLC = test system: HOP-92 NSCLC
KM12 colon = test system: KM12 colon
COLO 205 colon = test system: COLO 205 colon
SK-MEL-5 melanoma = test system: SK-MEL-5 melanoma
SK-MEL-2 melanoma = test system: SK-MEL-2 melanoma
SK-OV-3 ovarian = test system: SK-OV-3 ovarian
LXFL 529 NSCLC = test system: LXFL 529 NSCLC
OVCAR-5 ovarian = test system: OVCAR-5 ovarian
IGROV1 ovarian = test system: IGROV1 ovarian
UACC-257 melanoma = test system: UACC-257 melanoma
DLD-1 colon = test system: DLD-1 colon

COc1cc2c(cc1OC)/C(=C\c1ccccc1N)C(=O)OC2
TGI (CAKI-1 renal): 27.1 µM
TGI (U251 CNS): 32.6 µM
TGI (RPMI-8226 leukemia): 10.3 µM
TGI (HOP-18 NSCLC): 26.8 µM
TGI (SNB-19 CNS): 32.5 µM
TGI (DMS 273 small cell lung): 25.5 µM
TGI (OVCAR-3 ovarian): 35.7 µM
TGI (DMS 114 small cell lung): 34.7 µM
TGI (SK-MEL-28 melanoma): 41.5 µM
TGI (HT29 colon): 30.4 µM
TGI (A549 NSCLC): 60.1 µM
TGI (CCRF-CEM leukemia): 7.06 µM
TGI (SF-268 CNS): 75.4 µM
TGI (NCI-H23 lung): 42.7 µM
TGI (SF-295 CNS): 29.3 µM
TGI (NCI-H522 lung): 3.47 µM
TGI (LOX IMVI melanoma): 4.18 µM
TGI (KM20L2 colon): 43.4 µM
TGI (TK-10 renal): 35.2 µM
TGI (RXF 393 renal): 12.9 µM
TGI (MOLT-4 leukemia): 8.24 µM
TGI (M19-MEL melanoma): 39.2 µM
TGI (OVCAR-4 ovarian): 29 µM
TGI (786-0 renal): 9.96 µM
TGI (SNB-75 CNS): 24.9 µM
TGI (SN12C renal): 31.4 µM
TGI (EKVX NSCLC): 44.2 µM
TGI (RXF-631 renal): 23.5 µM
TGI (MALME-3M melanoma): 29.1 µM
TGI (SF-539 CNS): 31 µM
TGI (HCC-2998 colon): 47.2 µM
TGI (HL-60(TB) leukemia): 17.6 µM
TGI (HCT-15 colon): 27.2 µM
TGI (SW-620 colon): 13.9 µM
TGI (NCI-H460 lung): 33.5 µM
TGI (ACHN renal): 34.7 µM
TGI (M14 melanoma): 55.4 µM
TGI (UO-31 renal): 32.7 µM
TGI (UACC-62 melanoma): 32.2 µM
TGI (HOP-62 NSCLC): 45.4 µM
TGI (K-562 leukemia): 16.1 µM
TGI (HOP-92 NSCLC): 27.6 µM
TGI (KM12 colon): 31.3 µM
TGI (COLO 205 colon): 28.8 µM
TGI (SK-MEL-5 melanoma): 32.6 µM
TGI (SK-MEL-2 melanoma): 26.4 µM
TGI (SK-OV-3 ovarian): 55.7 µM
TGI (LXFL 529 NSCLC): 17.7 µM
TGI (OVCAR-5 ovarian): 35.4 µM
TGI (IGROV1 ovarian): 36.7 µM
TGI (UACC-257 melanoma): 34.3 µM
TGI (DLD-1 colon): 29.3 µM
